Where a name gives a salt, the structure may show the parent alone.
Each compound was assayed against PDE4B (Homo sapiens, UniProt Q07343) (assay: Scintillation Proximity Assay (SPA) of PDE4B enzymatic activity ([H3]-cAMP cleavage)). Conditions: test substance 1 μM; one-hour incubation with [H3]-cAMP and PDE4B at 30° C.
Format: biochemical
Description: The Scintillation Proximity Assay (SPA) (GE Healthcare, No. TRKQ7090) was carried out by using the different affinities of cyclic 3″-5″-adenosinemonophosphate (cAMP, low affinity) and linear 5″-adenosinemonophosphate (AMP, high affinity) for yttrium silicate scintillator beads. The cAMP specific phosphodiesterase (PDE) PDE4B cleaves the 3″-phosphoester bond of tritium-labelled [H3]-cAMP to form [H3]-5″-AMP. This [H3]-AMP accumulates on the scintillator beads because of its higher affinity for them and causes scintillation events (flashes of light) which are measured in a Wallac Microbeta Scintillation Counter.
The experiment starts with a one-hour incubation of [H3]-cAMP with the PDE4B enzyme in assay buffer at 30° C., in each case once with the Example substance to be tested (in a concentration of 1 μM) and once without the Example substance to be tested.
After this incubation, the reaction is stopped by the addition of the beads. The beads have an opportunity to settle in the next 45 minutes, then the measurement is carried out in the Scintillation Counter. If the substance is capable of inhibiting the enzymatic activity of the PDE4B, less [H3]-AMP is produced during the incubation phase and fewer scintillation events can be measured.

Chain of PDE4B (Q07343 whole entry, species assumed): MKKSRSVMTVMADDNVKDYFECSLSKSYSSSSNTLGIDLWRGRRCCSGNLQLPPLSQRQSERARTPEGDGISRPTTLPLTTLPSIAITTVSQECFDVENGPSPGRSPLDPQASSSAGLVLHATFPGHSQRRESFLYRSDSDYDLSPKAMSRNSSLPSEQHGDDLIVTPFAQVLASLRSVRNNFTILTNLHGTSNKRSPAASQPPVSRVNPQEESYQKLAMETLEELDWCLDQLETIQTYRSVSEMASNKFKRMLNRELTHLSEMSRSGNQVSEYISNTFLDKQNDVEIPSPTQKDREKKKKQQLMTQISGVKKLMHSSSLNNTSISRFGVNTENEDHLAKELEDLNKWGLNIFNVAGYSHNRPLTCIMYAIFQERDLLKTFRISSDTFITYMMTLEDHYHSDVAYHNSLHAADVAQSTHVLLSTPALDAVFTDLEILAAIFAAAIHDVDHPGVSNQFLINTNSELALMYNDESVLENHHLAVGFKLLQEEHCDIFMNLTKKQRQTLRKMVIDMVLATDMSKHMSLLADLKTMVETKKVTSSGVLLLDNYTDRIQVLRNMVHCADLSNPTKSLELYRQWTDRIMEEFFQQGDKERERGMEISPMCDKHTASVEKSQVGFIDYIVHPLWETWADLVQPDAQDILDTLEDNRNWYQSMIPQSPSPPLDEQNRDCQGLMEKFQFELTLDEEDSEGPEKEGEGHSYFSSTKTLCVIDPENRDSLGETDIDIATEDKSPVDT

| SMILES | inhibition at 1 µM [%] |
| --- | --- |
| CC(C)[C@H](CO)Nc1nc(N2CCN(c3ccnc(O)c3)CC2)nc2c1[S+]([O-])CC2 (stereo partly drawn) [Example 29, 4-{4-[4((R)-1-hydroxymethyl-2-methylpropylamino)-5-oxo-6,7-dihydro-5H-5λ^4-thieno[3,2-d]pyrimidin-2-yl]-piperazin-1-yl}-pyridin-2-ol] | 94 |
| CC(C)[C@H](CO)Nc1nc(N2CCN(c3ccncn3)CC2)nc2c1[S+]([O-])CC2 (stereo partly drawn) [Example 28, (R)-3-methyl-2-[5-oxo-2-(4-pyrimidin-4-yl-piperazin-1-yl)-6,7-dihydro-5H-5λ^4-thieno[3,2-d]pyrimidin-4-ylamino]-butan-1-ol trifluoroacetate] | 94 |
| COc1cccc2c1nc(N1CCN(c3nc4c(c(N[C@@H](CO)C(C)C)n3)[S+]([O-])CC4)CC1)n2C (stereo partly drawn) [Example 23, (R)-2-{2-[4-(4-methoxy-1-methyl-1H-benzimidazol-2-yl)-piperazin-1-yl]-5-oxo-6,7-dihydro-5H-5λ^4-thieno[3,2-d]pyrimidin-4-ylamino}-3-methylbutan-1-ol] | 83 |
| CCN1CCc2ncc(N3CCN(c4nc5c(c(N[C@@H](CO)C(C)C)n4)[S+]([O-])CC5)CC3)nc2CC1 (stereo partly drawn) [Example 24, (R)-2-{2-[4-(7-ethyl-6,7,8,9-tetrahydro-5H-pyrazino[2,3-d]azepin-2-yl)-piperazin-1-yl]-5-oxo-6,7-dihydro-5H-5^4-thieno[3,2-d]pyrimidin-4-ylamino}-3-methylbutan-1-ol] | 94 |
| CC(C)[C@H](CO)Nc1nc(N2CCN(c3nc4ccccc4o3)CC2)nc2c1[S+]([O-])CC2 (stereo partly drawn) [Example 10, (R)-2-[2-(4-benzoxazol-2-yl-piperazin-1-yl)-5-oxo-6,7-dihydro-5H-5λ^4-thieno[3,2-d]pyrimidin-4-ylamino]-3-methylbutan-1-ol] | 94 |
| [O-][S+]1CCc2nc(N3CCN(c4ccncc4)CC3)nc(NC3CCOCC3)c21 (stereo not drawn) [Example 96, [5-oxo-2-(4-pyridin-4-yl-piperazin-1-yl)-6,7-dihydro-5H-5λ^4-thieno[3,2-d]pyrimidin-4-yl]-(tetrahydropyran-4-yl)-amine trifluoroacetate] | 93 |
| [O-][S+]1CCc2nc(N3CCN(c4ccc(Cl)cn4)CC3)nc(NC3CCOCC3)c21 (stereo not drawn) [Example 14, {2-[4-(5-chloropyridin-2-yl)-piperazin-1-yl]-5-oxo-6,7-dihydro-5H-5λ^4-thieno[3,2-d]pyrimidin-4-yl}-(tetrahydropyran-4-yl)-amine] | 95 |
| [O-][S+]1CCc2nc(N3CCN(c4ccncn4)CC3)nc(NC3(CO)CC3)c21 (stereo not drawn) [Example 55, {1-[5-oxo-2-(4-pyrimidin-4-yl-piperazin-1-yl)-6,7-=dihydro-5H-5λ^4-thieno[3,2-d]pyrimidin-4-ylamino]-cyclopropyl}-methanol trifluoroacetate] | 95 |
| CC(C)[C@H](CO)Nc1nc(N2CCN(c3ccnnc3)CC2)nc2c1[S+]([O-])CC2 (stereo partly drawn) [Example 39, (R)-3-methyl-2-[5-oxo-2-(4-pyridazin-4-yl-piperazin-1-yl)-6,7-dihydro-5H-5λ^4-thieno[3,2-d]pyrimidin-4-ylamino]-butan-1-ol trifluoroacetate] | 92 |
| [O-][S+]1CCc2nc(N3CCN(c4ccncc4)CC3)nc(NC3(CO)CC3)c21 (stereo not drawn) [Example 58, {1-[5-oxo-2-(4-pyridin-4-yl-piperazin-1-yl)-6,7-dihydro-5H-5λ^4-thieno[3,2-d]pyrimidin-4-ylamino]-cyclopropyl}-methanol trifluoroacetate] | 91 |
| CCOCCOc1ccc(N2CCN(c3nc4c(c(N[C@@H](CO)C(C)C)n3)[S+]([O-])CC4)CC2)nn1 (stereo partly drawn) [Example 38, (R)-2-(2-{4-[6-(2-ethoxyethoxy)-pyridazin-3-yl]-piperazin-1-yl}-5-oxo-6,7-dihydro-5H-5λ^4-thieno[3,2-d]pyrimidin-4-ylamino)-3-methylbutan-1-ol trifluoroacetate] | 96 |
| [O-][S+]1CCc2nc(N3CCN(c4ccc(Cl)cn4)CC3)nc(NC3(CO)CC3)c21 (stereo not drawn) [Example 13, (1-{2-[4-(5-Chloropyridin-2-yl)-piperazin-1-yl]-5-oxo-6,7-dihydro-5H-5λ^4-thieno[3,2-d]pyrimidin-4-ylamino}-cyclopropyl)-methanol] | 95 |
| CN1C[C@@H](Nc2nc(N3CCN(c4ccncn4)CC3)nc3c2[S+]([O-])CC3)CCC1=O (stereo partly drawn) [Example 71, (S)-1-methyl-5-[5-oxo-2-(4-pyrimidin-4-yl-piperazin-1-yl)-6,7-dihydro-5H-5λ^4-thieno[3,2-d]pyrimidin-4-ylamino]-piperidin-2-one] | 96 |
| CC(C)[C@H](CO)Nc1nc(N2CCN(c3ccncc3)CC2)nc2c1[S+]([O-])CC2 (stereo partly drawn) [Example 32, (R)-3-methyl-2-[5-oxo-2-(4-pyridin-4-yl-piperazin-1-yl)-6,7-dihydro-5H-5λ^4-thieno[3,2-d]pyrimidin-4-ylamino]-butan-1-ol trifluoroacetate] | 77 |
| CC(C)[C@H](CO)Nc1nc(N2CCN(c3noc4ccccc34)CC2)nc2c1[S+]([O-])CC2 (stereo partly drawn) [Example 150, (R)-2-[2-(4-benzo[d]isoxazol-3-yl-piperazin-1-yl)-5-oxo-6,7-dihydro-5H-5λ^4-thieno[3,2-d]pyrimidin-4-ylamino]-3-methylbutan-1-ol] | 95 |
| CCN1CCc2ncc(N3CCN(c4nc5c(c(Nc6cccc(F)c6)n4)[S+]([O-])CC5)CC3)nc2CC1 (stereo not drawn) [Example 109, {2-[4-(7-ethyl-6,7,8,9-tetrahydro-5H-pyrazino[2,3-d]azepin-2-yl)-piperazin-1-yl]-5-oxo-6,7-dihydro-5H-5λ^4-thieno[3,2-d]pyrimidin-4-yl}-(3-fluorophenyl)-amine trifluoroacetate] | 96 |
| CC(C)[C@H](CO)Nc1nc(N2CCN(c3nc(-c4ccc(F)cc4)cs3)CC2)nc2c1[S+]([O-])CC2 (stereo partly drawn) [Example 148, (R)-2-(2-{4-[4-(4-fluorophenyl)-thiazol-2-yl]-piperazin-1-yl}-5-oxo-6,7-dihydro-5H-5λ^4-thieno[3,2-d]pyrimidin-4-ylamino)-3-m ethylbutan-1-ol] | 95 |
| CC(C)[C@H](CO)Nc1nc(N2CCN(c3ccc(Cl)nn3)CC2)nc2c1[S+]([O-])CC2 (stereo partly drawn) [Example 6, (R)-2-{2-[4-(6-chlorpyridazin-3-yl)-piperazin-1-yl]-5-oxo-6,7-dihydro-5H-5λ^4-thieno[3,2-d]pyrimidin-4-ylamino}-3-methylbutan-1-ol] | 93 |

Results, then the compound that gave them:

| inhibition at 1 µM [%] | SMILES |
| --- | --- |
| 96 | [O-][S+]1CCc2nc(N3CCN(c4ccncn4)CC3)nc(Nc3cccc(F)c3)c21 (stereo not drawn) [Example 113, (3-fluorophenyl)-[5-oxo-2-(4-pyrimidin-4-yl-piperazin-1-yl)-6,7-dihydro-5H-5λ^4-thieno[3,2-d]pyrimidin-4-yl]-amine trifluoroacetate] |
| 97 | CCOCCOc1ccc(N2CCN(c3nc4c(c(Nc5cccc(F)c5)n3)[S+]([O-])CC4)CC2)nn1 (stereo not drawn) [Example 17, (2-{4-[6-(2-ethoxyethoxy)-pyridazin-3-yl]-piperazin-1-yl}-5-oxo-6,7-dihydro-5H-5λ^4-thieno[3,2-d]pyrimidin-4-yl)-(3-fluorophenyl)-amine] |
| 96 | [O-][S+]1CCc2nc(N3CCN(c4ccncc4)CC3)nc(Nc3cccc(F)c3)c21 (stereo not drawn) [Example 117, (3-fluorophenyl)-[5-oxo-2-(4-pyridin-4-yl-piperazin-1-yl)-6,7-dihydro-5H-5λ^4-thieno[3,2-d]pyrimidin-4-yl]-amine] |
| 94 | [O-][S+]1CCc2nc(N3CCN(c4nccs4)CC3)nc(Nc3cccc(F)c3)c21 (stereo not drawn) [Example 1, (3-fluorophenyl)-[5-oxo-2-(4-thiazol-2-yl-piperazin-1-yl)-6,7-dihydro-5H-5λ^4-thieno[3,2-d]pyrimidin-4-yl]-amine] |
| 97 | CN(C)c1nnccc1N1CCN(c2nc3c(c(Nc4cccc(F)c4)n2)[S+]([O-])CC3)CC1 (stereo not drawn) [Example 15, {2-[4-(3-dimethylaminopyridazin-4-yl)-piperazin-1-yl]-5-oxo-6,7-dihydro-5H-5λ^4-thieno[3,2-d]pyrimidin-4-yl}-(3-fluorophenyl)-amine] |
| 95 | [O-][S+]1CCc2nc(N3CCN(c4nc5ccccc5o4)CC3)nc(Nc3cccc(F)c3)c21 (stereo not drawn) [Example 3, [2-(4-benzoxazol-2-yl-piperazin-1-yl)-5-oxo-6,7-dihydro-5H-5λ^4-thieno[3,2-d]pyrimidin-4-yl]-(3-fluorophenyl)-amine] |
| 96 | [O-][S+]1CCc2nc(N3CCN(c4ccnc(O)c4)CC3)nc(Nc3cccc(F)c3)c21 (stereo not drawn) [Example 114, 4-{4-[4-(3-fluorophenylamino)-5-oxo-6,7-dihydro-5H-5λ^4-thieno[3,2-d]pyrimidin-2-yl]-piperazin-1-yl}-pyridin-2-ol] |
| 90 | CC(C)[C@H](CO)Nc1nc(N2CCN(c3nccs3)CC2)nc2c1[S+]([O-])CC2 (stereo partly drawn) [Example 2, (R)-3-methyl-2-[5-oxo-2-(4-thiazol-2-yl-piperazin-1-yl)-6,7-dihydro-5H-5λ^4-thieno[3,2-d]pyrimidin-4-ylamino]-butan-1-ol] |
| 95 | COc1cccc2c1nc(N1CCN(c3nc4c(c(Nc5cccc(F)c5)n3)[S+]([O-])CC4)CC1)n2C (stereo not drawn) [Example 108, (3-fluorophenyl)-{2-[4-(4-methoxy-1-methyl-1H-benzimidazol-2-yl)-piperazin-1-yl]-5-oxo-6,7-dihydro-5H-5λ^4-thieno[3,2-d]pyrimidin-4-yl}-amine trifluoroacetate] |
